Measurements: US8338565B2, “Macrocyclic compounds for inhibition of tumor necrosis factor alpha” (Ensemble Therapeutics Corporation, priority 2008, dated 2012)
Read-outs that look alike come from different tables or passages of the source. Numbered stars: 1 amine (or outer) side, 2 acyl side, 3 side chain; on linkers, the order of the positions; unused ones are H or OH. Bridge positions count the residues as written; N and C are the ends. Square brackets hold non-standard residues; d marks the D form. Peptide text beside a SMILES is read from it. Tartaroyl(2R,3R-(OAc)2) = CC(=O)O[C@@H](C(=O)[*:1])[C@@H](OC(C)=O)C(=O)[*:2]; Bip(2'-Me) = Cc1ccccc1-c1ccc(C[C@H](N)C(=O)O)cc1; Phe(4-COOH) = N[C@@H](Cc1ccc(C(=O)O)cc1)C(=O)O; Phe(2,4-Cl2) = N[C@@H](Cc1ccc(Cl)cc1Cl)C(=O)O; Bip = N[C@@H](Cc1ccc(-c2ccccc2)cc1)C(=O)O; dPhe(4-NH2) = Nc1ccc(C[C@@H](N)C(=O)O)cc1; Phe(4-Br) = N[C@@H](Cc1ccc(Br)cc1)C(=O)O; dPhe(4-Cl) = N[C@H](Cc1ccc(Cl)cc1)C(=O)O; Phe(4-NH2) = Nc1ccc(C[C@H](N)C(=O)O)cc1; dAla(2-furyl) = N[C@H](Cc1ccco1)C(=O)O; d(hPhe) = N[C@H](CCc1ccccc1)C(=O)O; d2Thi = N[C@H](Cc1cccs1)C(=O)O; d3Thi = N[C@H](Cc1ccsc1)C(=O)O; dCha = N[C@H](CC1CCCCC1)C(=O)O; dPhg = N[C@@H](C(=O)O)c1ccccc1; Suc = O=C(CCC(=O)[*:2])[*:1]; GABA = NCCCC(=O)O; βAla = NCCC(=O)O

Target: T1, TNFα / TNFα receptor (TNFα R1/Fc) (Homo sapiens, UniProt P01375)
T1 construct: purchased R&D Systems
T1 sequence (P01375 77-233 limits assumed, species assumed): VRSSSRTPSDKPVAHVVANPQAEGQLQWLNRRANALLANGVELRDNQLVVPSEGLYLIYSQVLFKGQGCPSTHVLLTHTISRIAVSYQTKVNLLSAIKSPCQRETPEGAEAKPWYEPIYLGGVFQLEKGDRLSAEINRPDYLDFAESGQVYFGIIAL
Experiment: Inhibition of binding of TNFα to the TNFα receptor (plate ELISA competition)
Settings: Table 2
Method in brief: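 Compound dilutions were preincubated 30 min at RT with 8.33 nM TNFα R1/Fc in PBST with 2% DMSO, then added to wells coated with 15 nM TNFα for 30 min. Bound receptor was detected with HRP anti-human Fc and TMB, read as A450.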

[1] = read-out: Activity (IC50, inhibition of TNFα binding to TNFα R1/Fc)

Row | IC50 [1] [µM] | Compound | IC50 (Activity (IC50, inhibition of TNFα binding to TNFα R1/Fc)) [µM]
1 | < 10 | O=C1COc2ccc(cc2)C[C@H](C(=O)O)NC(=O)[C@H](CCc2ccccc2)NC(=O)[C@@H](Cc2ccc(-c3ccccc3)cc2)NC(=O)[C@H](Cc2cccs2)N1 [Compound 673] | 
2 | > 100 | NCCCC(=O)N[C@H]1CC(=O)Nc2ccc(cc2)C[C@@H](C(=O)N[C@@H](Cc2ccccc2)C(=O)O)NC(=O)[C@@H](Cc2ccccc2)NC(=O)[C@H](Cc2ccc(-c3ccccc3)cc2)NC(=O)[C@@H](Cc2cccs2)NC1=O [Compound 529] (H-[GABA]D[d2Thi][Bip][dF][Phe(4-NH2)]F-OH; lactam 2-6) | 
3 | > 100 | O=C1COc2ccc(cc2)C[C@@H](C(=O)NCCCS(=O)(=O)O)NC(=O)[C@H](CCc2ccccc2)NC(=O)[C@@H](Cc2ccc(-c3ccccc3)cc2)NC(=O)[C@H](Cc2cccs2)N1 [Compound 603] | 
4 | 10 to 30 | CC(=O)O[C@H]1C(=O)Nc2ccc(cc2)C[C@H](C(=O)O)NC(=O)[C@@H](CCc2ccccc2)NC(=O)[C@H](Cc2ccc(Cl)cc2Cl)NC(=O)[C@@H](Cc2ccccc2)NC(=O)[C@@H]1OC(C)=O [Compound 220] ([dF][Phe(2,4-Cl2)][d(hPhe)][dPhe(4-NH2)]-OH; linker N-4 via Tartaroyl(2R,3R-(OAc)2)) | 
5 |  | O=C1COc2ccc(cc2)C[C@@H](C(=O)NCc2nnn[nH]2)NC(=O)[C@H](CCc2ccccc2)NC(=O)[C@@H](Cc2ccc(-c3ccccc3)cc2)NC(=O)[C@H](Cc2c[nH]c3ccccc23)N1 [Compound 746] | < 10
6 | 30 to 100 | O=C1CCC(=O)N[C@H](Cc2cccs2)C(=O)N[C@@H](Cc2ccc(-c3ccccc3)cc2)C(=O)N[C@H](Cc2ccsc2)C(=O)N[C@H](C(=O)O)Cc2ccc(cc2)N1 [Compound 75] ([d2Thi][Bip][d3Thi][Phe(4-NH2)]-OH; linker N-4 via Suc) | 
7 | 10 to 30 | O=C(O)[C@@H]1Cc2ccc(cc2)NC(=O)[C@H](O)[C@@H](O)C(=O)N[C@H](Cc2cccs2)C(=O)N[C@@H](Cc2ccc3ccccc3c2)C(=O)N[C@H](Cc2ccccc2)C(=O)N1 [Compound 190] | 
8 | > 100 | O=C1COc2ccc(cc2)C[C@@H](C(=O)O)NC(=O)[C@@H](Cc2ccccc2)NC(=O)[C@H](Cc2ccc(C(F)(F)F)cc2)NC(=O)[C@@H](CCc2ccccc2)N1 [Compound 216] | 
9 | > 100 | O=C1COc2ccc(cc2)C[C@@H](C(=O)O)NC(=O)[C@@H](Cc2ccc(C(F)(F)F)cc2)NC(=O)[C@H](Cc2ccc(-c3ccccc3)cc2)NC(=O)[C@@H](Cc2cccs2)N1 [Compound 531] | 
10 | 10 to 30 | O=C1CCC(=O)N[C@H](Cc2cccs2)C(=O)N[C@@H](Cc2ccc(-c3ccccc3)cc2)C(=O)N[C@H](c2ccccc2)C(=O)N[C@H](C(=O)O)Cc2ccc(cc2)N1 [Compound 76] ([d2Thi][Bip][dPhg][Phe(4-NH2)]-OH; linker N-4 via Suc) | 
11 | 30 to 100 | O=C1CCC(=O)NN(Cc2ccccc2)C(=O)N[C@@H](Cc2ccc(-c3ccccc3)cc2)C(=O)N[C@H](Cc2ccccc2)C(=O)N[C@H](C(=O)O)Cc2ccc(cc2)N1 [Compound 119] | 
12 | < 10 | CN1C(=O)COc2ccc(cc2)C[C@@H](C(=O)N[C@H](CCc2ccccc2)C(=O)O)NC(=O)[C@H](Cc2c[nH]c3ccccc23)NC(=O)[C@@H](Cc2ccc(-c3ccccc3)cc2)NC(=O)[C@@H]1Cc1c[nH]c2ccccc12 [Compound 747] | 
13 | 30 to 100 | O=C1N[C@H](Cc2ccccc2)C(=O)N[C@@H](C(=O)O)Cc2ccc(cc2)NC(=O)[C@H](O)[C@@H](O)C(=O)N[C@H](Cc2cccs2)C(=O)N[C@H]1Cc1ccc(Cl)cc1Cl [Compound 244] | 
14 | > 100 | O=C1COc2ccc(cc2)C[C@@H](C(=O)O)NC(=O)[C@@H](CCc2ccccc2)NC(=O)[C@H](Cc2ccc(F)cc2)NC(=O)[C@@H](Cc2cccs2)N1 [Compound 527] | 
15 | < 10 | O=C1COc2ccc(cc2)C[C@@H](C(=O)O)NC(=O)[C@H](Cc2ccccc2F)NC(=O)[C@@H](Cc2ccc(-c3ccccc3)cc2)NC(=O)[C@H](Cc2cccs2)N1 [Compound 625] | 
16 | 30 to 100 | O=C1CCC(=O)N[C@H](CCc2ccccc2)C(=O)N[C@@H](Cc2ccc(-c3cc(F)cc(F)c3)cc2)C(=O)N[C@H](Cc2ccccc2)C(=O)N[C@H](C(=O)O)Cc2ccc(cc2)N1 [Compound 182] | 
17 | 10 to 30 | O=C1CCC(=O)N[C@H](Cc2cccs2)C(=O)N[C@@H](Cc2ccc(-c3ccccc3)cc2)C(=O)N[C@H](Cc2ccco2)C(=O)N[C@H](C(=O)O)Cc2ccc(cc2)N1 [Compound 48] ([d2Thi][Bip][dAla(2-furyl)][Phe(4-NH2)]-OH; linker N-4 via Suc) | 
18 | 10 to 30 | O=C(O)[C@@H]1Cc2ccc(cc2)NC(=O)[C@H](O)[C@@H](O)C(=O)N[C@H](Cc2cccs2)C(=O)N[C@@H](Cc2ccc(-c3ccccc3)cc2)C(=O)N[C@H](Cc2ccc(Cl)cc2Cl)C(=O)N1 [Compound 287] | 

Row | IC50 [1] [µM] | Compound | IC50 (Activity (IC50, inhibition of TNFα binding to TNFα R1/Fc)) [µM]
19 | > 100 | O=C1CNC(=O)c2ccc(cc2)C[C@@H](C(=O)O)NC(=O)[C@@H](Cc2ccccc2)NC(=O)[C@H](Cc2ccc(-c3ccccc3)cc2)NC(=O)[C@@H](CCc2ccccc2)N1 [Compound 247] (G[d(hPhe)][Bip][dF][Phe(4-COOH)]-OH; lactam N-5) | 
20 | 30 to 100 | O=C1N[C@H](Cc2ccccc2)C(=O)N[C@@H](C(=O)O)Cc2ccc(cc2)NC(=O)[C@H](O)[C@@H](O)C(=O)N[C@H](Cc2ccccc2)C(=O)N[C@H]1Cc1ccc(-c2ccccc2)cc1 [Compound 241] | 
21 | > 100 | O=C1CCC(=O)N[C@H](CC2CCCCC2)C(=O)N[C@@H](Cc2ccc(-c3ccccc3)cc2)C(=O)N[C@H](Cc2ccccc2)C(=O)N[C@H](C(=O)O)Cc2ccc(cc2)N1 [Compound 124] ([dCha][Bip][dF][Phe(4-NH2)]-OH; linker N-4 via Suc) | 
22 | > 100 | O=C(O)CCCNC(=O)[C@@H]1Cc2ccc(cc2)NC(=O)CCC(=O)N[C@H](Cc2cccs2)C(=O)N[C@@H](Cc2ccc(-c3ccccc3)cc2)C(=O)N[C@H](CCc2ccccc2)C(=O)N1 [Compound 449] ([d2Thi][Bip][d(hPhe)][Phe(4-NH2)][GABA]-OH; linker N-4 via Suc) | 
23 | 10 to 30 | O=C(O)CCNC(=O)[C@@H]1Cc2ccc(cc2)NC(=O)CCC(=O)N[C@H](Cc2cccs2)C(=O)N[C@@H](Cc2ccc(-c3ccccc3)cc2)C(=O)N[C@H](CCc2ccccc2)C(=O)N1 [Compound 448] ([d2Thi][Bip][d(hPhe)][Phe(4-NH2)][βAla]-OH; linker N-4 via Suc) | 
24 | 10 to 30 | O=C1COc2ccc(cc2)C[C@@H](C(=O)O)NC(=O)[C@@H](CCc2ccccc2)NC(=O)[C@H](Cc2ccc(-c3ccccc3)cc2)NC(=O)[C@@H](Cc2ccc(F)c(F)c2)N1 [Compound 524] | 
25 | < 10 | O=C1COc2ccc(cc2)C[C@@H](C(=O)N2CCC(C(=O)O)CC2)NC(=O)[C@@H](CCc2ccccc2)NC(=O)[C@H](Cc2ccc(-c3ccccc3)cc2)NC(=O)[C@@H](Cc2cccs2)N1 [Compound 306] | 
26 | < 10 | CC(=O)O[C@H]1C(=O)Nc2ccc(cc2)C[C@H](C(=O)O)NC(=O)[C@@H](CCc2ccccc2)NC(=O)[C@H](Cc2ccc(Br)cc2)NC(=O)[C@@H](Cc2cccs2)NC(=O)[C@@H]1OC(C)=O [Compound 219] ([d2Thi][Phe(4-Br)][d(hPhe)][dPhe(4-NH2)]-OH; linker N-4 via Tartaroyl(2R,3R-(OAc)2)) | 
27 | 10 to 30 | O=C1CCC(=O)N[C@H](Cc2cccs2)C(=O)N[C@@H](Cc2ccc(Br)cc2)C(=O)N[C@H](Cc2ccco2)C(=O)N[C@@H](C(=O)O)Cc2ccc(cc2)N1 [Compound 159] ([d2Thi][Phe(4-Br)][dAla(2-furyl)][dPhe(4-NH2)]-OH; linker N-4 via Suc) | 
28 | > 100 | O=C1CCC(=O)N[C@H](Cc2cccs2)C(=O)N[C@@H](Cc2ccc(-c3ccccc3)cc2)C(=O)N[C@H](Cc2ccc(Cl)cc2)C(=O)N[C@H](C(=O)O)Cc2ccc(cc2)N1 [Compound 81] ([d2Thi][Bip][dPhe(4-Cl)][Phe(4-NH2)]-OH; linker N-4 via Suc) | 
29 | > 100 | O=C(O)[C@@H]1Cc2ccc(cc2)NC(=O)[C@H](O)[C@@H](O)C(=O)N[C@@H](Cc2cccs2)C(=O)N[C@H](Cc2ccc(-c3ccccc3)cc2)C(=O)N[C@H](Cc2ccccc2)C(=O)N1 [Compound 272] | 
30 | > 100 | O=C1COc2ccc(cc2)C[C@@H](C(=O)O)NC(=O)[C@@H](CCc2ccccc2)NC(=O)[C@H](Cc2ccc(-c3ccccc3)cc2)NC(=O)[C@@H](Cc2ccncc2)N1 [Compound 523] | 
31 | < 10 | O=C1COc2ccc(cc2)C[C@@H](C(=O)N[C@H](Cc2ccc(O)cc2)C(=O)O)NC(=O)[C@H](CCc2ccccc2)NC(=O)[C@@H](Cc2ccc(-c3ccccc3)cc2)NC(=O)[C@H](Cc2ccc(-c3ccncc3)cc2)N1 [Compound 586] | 
32 | < 10 | O=C1COc2ccc(cc2)C[C@@H](C(=O)O)NC(=O)[C@H](CCc2ccccc2)NC(=O)[C@@H](Cc2ccc(-c3ccccc3)cc2)NC(=O)[C@H](Cc2ccc(-c3ccccc3)cc2)N1 [Compound 510] | 
33 | 30 to 100 | Cc1ccccc1-c1ccc(C[C@@H]2NC(=O)[C@@H](Cc3cccs3)NC(=O)CCC(=O)Nc3ccc(cc3)C[C@@H](C(=O)O)NC(=O)[C@@H](Cc3ccccc3)NC2=O)cc1 [Compound 95] ([d2Thi][Bip(2'-Me)][dF][Phe(4-NH2)]-OH; linker N-4 via Suc) | 
34 | < 10 | NCCCC[C@H](NC(=O)[C@@H]1Cc2ccc(cc2)NC(=O)CCC(=O)N[C@H](Cc2cccs2)C(=O)N[C@@H](Cc2ccc(-c3ccccc3)cc2)C(=O)N[C@H](Cc2ccccc2)C(=O)N1)C(=O)O [Compound 28] ([d2Thi][Bip][dF][Phe(4-NH2)]K-OH; linker N-4 via Suc) | 
35 | > 100 | O=C1CCC(=O)N[C@H](CCc2ccccc2)C(=O)N[C@@H](Cc2ccc(-c3ncccn3)cc2)C(=O)N[C@H](Cc2ccccc2)C(=O)N[C@H](C(=O)O)Cc2ccc(cc2)N1 [Compound 114] | 
36 | > 100 | O=C1N[C@H](Cc2ccco2)C(=O)N[C@@H](C(=O)O)Cc2ccc(cc2)NC(=O)[C@H](O)[C@@H](O)C(=O)N[C@H](Cc2cccs2)C(=O)N[C@H]1Cc1ccc(Br)cc1 [Compound 155] | 
